Results taken from patent US9938286B2, “Nalmefene salts as medicaments for reducing alcohol consumption or for preventing excessive alcohol consumption” (H. Lundbeck A/S, priority 2013, dated 2018).
Counter-ions that a name gives are not always drawn. Like-named read-outs stand apart in the source and are kept apart here.

Assays:
[1] = Attempt to form hydrates: precipitation from pure water, XRPD of precipitate; assay type: physicochemical; conditions: precipitated from pure water at room temperature and atmospheric pressure
Description: A “hydrate” indicates a crystalline material with water (H2O) molecules incorporated into the crystal lattice. More particularly, a “non-hydrate forming salt” of nalmefene indicates a salt of which any isolated crystal form contains less than 25 mol % water, such as less than 20 mol % water, such as less than 15 mol % water, such as less than 10 mol % water, such as less than 5 mol % water, such as less than 4, 3, 2 or 1 mol % water, such as substantially no water in the crystal lattice of said salt.

[2] = Dynamic vapour sorption (DVS), water absorption; assay type: physicochemical
Procedure: Dynamic vapour sorption experiments were performed using a SMS DVS advantage 01 changing the relative humidity from 30-40% RH up to 90-95% RH in steps of 10%RH.

[3] = Attempt to form solvates: precipitation from organic solvents, XRPD of precipitate; assay type: physicochemical; conditions: for solvate formation from the organic solvents assessed: EtOH, MeOH, IPA, EtOAc, acetone, ACN, THF, MIBK, toluene and 2.2.2-trifluoroethanol, room temperature, atmospheric pressure; for solvate formation from EtOH: precipitated from EtOH
Description: A “solvate” indicates a crystalline material with solvent molecules incorporated into the crystal lattice. In the present context, when referring to “solvents” these are limited to non-aqueous solvents, preferably organic solvents. Solvents assessed for solvate formation according to the invention includes the following: ethanol (EtOH), methanol (MeOH), isopropanol (IPA), ethyl acetate (EtOAc), acetone, acetonitrile (ACN), tetrahydrofurane (THF), methyl isobutyl ketone (MIBK), toluene and 2,2,2-trifluoroethanol.
The clear supernatant was diluted and assayed by HPLC. All precipitates were analyzed by XRPD.

μ receptor = μ receptor (Homo sapiens, UniProt P35372); conditions: in vitro studies; cited from earlier work
κ receptor = κ receptor (Homo sapiens, UniProt P41145); conditions: in vitro studies; cited from earlier work
δ receptor = δ receptor (Homo sapiens, UniProt P41143); conditions: in vitro studies; cited from earlier work
[4] = Thermodynamic aqueous solubility in pure water (shaking, HPLC); conditions: for pH: aqueous solubility sample in pure water; for pH / Solubility (mg base/mL), aqueous: 23° C. ± 2°; for Solubility (mg base/mL), aqueous: pure water, normalised to nalmefene free base
[5] = Solubility in organic solvents (HPLC); conditions: 23° C. ± 2°
Procedure: The suspensions were heated with the purpose of obtaining complete dissolution and then cooled to room temperature and left for equilibrium to be attained. The clear supernatant was diluted and assayed by HPLC. All precipitates were analyzed by XRPD.
For comparison, the solvate formation from nalmefene hydrochloride was also investigated.

[6] = precipitated/crystallized from ethanol, Brittain 1996, cited from earlier work
[7] = Brittain 1996, WO 2010/063292, cited from earlier work

Sequence of κ receptor (P41145 whole entry): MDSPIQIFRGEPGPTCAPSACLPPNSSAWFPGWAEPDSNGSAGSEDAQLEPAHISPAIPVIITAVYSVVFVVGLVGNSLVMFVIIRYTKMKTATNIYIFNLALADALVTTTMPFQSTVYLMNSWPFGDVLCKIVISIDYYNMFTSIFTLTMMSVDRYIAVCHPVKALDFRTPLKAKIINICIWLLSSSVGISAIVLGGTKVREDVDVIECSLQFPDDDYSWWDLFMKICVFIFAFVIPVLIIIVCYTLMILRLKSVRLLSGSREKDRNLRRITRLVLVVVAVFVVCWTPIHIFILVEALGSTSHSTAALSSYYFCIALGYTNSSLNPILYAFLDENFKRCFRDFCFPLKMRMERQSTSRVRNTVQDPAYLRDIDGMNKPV
Sequence of δ receptor (P41143 whole entry): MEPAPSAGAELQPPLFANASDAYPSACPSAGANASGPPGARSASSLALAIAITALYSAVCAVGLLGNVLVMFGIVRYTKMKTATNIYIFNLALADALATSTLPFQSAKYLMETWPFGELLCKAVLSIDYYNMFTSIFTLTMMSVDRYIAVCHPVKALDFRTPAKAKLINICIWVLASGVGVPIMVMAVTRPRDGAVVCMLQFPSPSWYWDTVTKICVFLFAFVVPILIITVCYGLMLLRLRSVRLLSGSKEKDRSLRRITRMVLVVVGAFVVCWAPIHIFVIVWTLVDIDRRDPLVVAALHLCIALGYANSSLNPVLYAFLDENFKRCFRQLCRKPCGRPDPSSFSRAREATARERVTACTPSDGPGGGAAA
Sequence of μ receptor (P35372 whole entry): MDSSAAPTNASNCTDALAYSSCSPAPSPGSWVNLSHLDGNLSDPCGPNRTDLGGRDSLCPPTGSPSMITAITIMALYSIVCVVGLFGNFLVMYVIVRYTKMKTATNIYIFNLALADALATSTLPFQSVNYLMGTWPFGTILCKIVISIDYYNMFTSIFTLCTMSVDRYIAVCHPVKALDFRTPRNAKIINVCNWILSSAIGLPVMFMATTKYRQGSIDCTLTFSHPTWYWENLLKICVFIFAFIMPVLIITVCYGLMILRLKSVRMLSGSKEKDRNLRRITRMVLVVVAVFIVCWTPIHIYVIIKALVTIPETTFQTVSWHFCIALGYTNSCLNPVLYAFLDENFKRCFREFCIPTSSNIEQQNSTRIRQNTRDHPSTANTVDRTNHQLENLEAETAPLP

## C=C1CC[C@@]2(O)[C@H]3Cc4ccc(O)c5c4[C@@]2(CCN3CC2CC2)[C@H]1O5.O=C(O)/C=C/C(=O)O
[1]
  hydrate formation: not to form hydrates
[2]
  % abs. at 90% RH (water absorption determined by DVS): 0.6%
[3]; precipitated from 2,2,2-trifluoroethanol
  solvate formation from 2,2,2-trifluoroethanol: formed solvate

## C=C1CC[C@@]2(O)[C@H]3Cc4ccc(O)c5c4[C@@]2(CCN3CC2CC2)[C@H]1O5 [nalmefene, 17-(cyclopropylmethyl)-4,5-alpha-epoxy-6-methylenemorphinan-3,14-diol]
μ receptor
  activity at the μ receptor: antagonist activity
κ receptor
  activity at the κ receptor: partial agonist activity
δ receptor
  activity at the δ receptor: antagonist activity

## C=C1CC[C@@]2(O)[C@H]3Cc4ccc(O)c5c4[C@@]2(CCN3CC2CC2)[C@H]1O5.O=C(O)CCCCC(=O)O
[1]
  hydrate formation: not to form hydrates
[2]
  % abs. at 90% RH (water absorption determined by DVS): 0.35%
[3]
  solvate formation from the organic solvents assessed: No solvates were formed

## O=C(O)c1ccccc1O [Salicylate]
[4]
  pH: 7.14
  Solubility (mg base/mL), aqueous: 3.0 mg base/mL
[4]; listed as salicylate salt
  Solubility (mg base/mL), aqueous: 3 mg base/mL
[1]
  hydrate formation: not to form hydrates
[2]
  % abs. at 90% RH (water absorption determined by DVS): 0.4%
[5]; 2,2,2-trifluoroethanol, * = precipitated as solvate
  Solubility in 2,2,2-trifluoro-EtOH: 120 mg base/mL
[5]; ACN
  Solubility in ACN: 8.2 mg base/mL
[5]; EtOAc
  Solubility in EtOAc: 2.0 mg base/mL
[5]; EtOH, * = precipitated as solvate
  Solubility in EtOH: 19 mg base/mL
[5]; IPA, * = precipitated as solvate
  Solubility in IPA: 0.5* mg base/mL
[5]; MIBK
  Solubility in MIBK: 2.9 mg base/mL
[5]; MeOH, * = precipitated as solvate
  Solubility in MeOH: 91 mg base/mL
[5]; THF
  Solubility in THF: 35 mg base/mL
[5]; acetone
  Solubility in acetone: 9.7 mg base/mL
[3]; precipitated from IPA
  solvate formation from IPA: formed solvate

## C=C1CC[C@@]2(O)[C@H]3Cc4ccc(O)c5c4[C@@]2(CCN3CC2CC2)[C@H]1O5.O=C(O)/C=C\C(=O)O [Hydrogen maleate]
[1]
  hydrate formation: not to form hydrates
[2]
  % abs. at 90% RH (water absorption determined by DVS): 0.2%
[3]
  solvate formation from the organic solvents assessed: No solvates were formed

## C1=Cc2cccc(OC[C@H]3CNCCO3)c2C1.O=S(=O)(O)c1ccccc1 [Benzene sulfonate]
[4]
  pH: 3.12
[1]
  hydrate formation: not to form hydrates
[2]
  % abs. at 90% RH (water absorption determined by DVS): <0.2%
[3]
  solvate formation from EtOH: solvate
[3]; listed as benzene sulfonate salt
  solvate formation from EtOH: formed solvate
[3]; precipitated from THF
  solvate formation from THF: formed solvate

## C=C1CC[C@@]2(O)[C@H]3Cc4ccc(O)c5c4[C@@]2(CCN3CC2CC2)[C@H]1O5.O=C(O)CC(=O)O
[1]
  hydrate formation: not to form hydrates
[2]
  % abs. at 90% RH (water absorption determined by DVS): 0.35%
[3]; precipitated from MeOH
  solvate formation from MeOH: formed solvate

## C=C1CC[C@@]2(O)[C@H]3Cc4ccc(O)c5c4[C@@]2(CCN3CC2CC2)[C@H]1O5 [nalmefene hydrochloride]
[4]; unpublished data
  aqueous solubility of the known hydrochloride salt: 109 mg base/mL
[6]
  solvate formation from ethanol (literature): form solvate
[6]; listed as Nalmefene hydrochloride
  solvate formation from ethanol (literature): ethanol solvate
[3]; listed as hydrochloride salt
  solvate formation from the organic solvents assessed: formed solvate from all the organic solvents
[7]; listed as HCl salt of nalmefene
  hydrate formation / thermodynamically stable form (literature): only thermodynamically stable in hydrated or solvated form
[7]; listed as nalmefene hydrochloride salt
  hydrate formation / thermodynamically stable form (literature): hydrate-forming salt

## L-lactate
[1]
  hydrate formation: corresponds to a monohydrate
[2]
  % abs. at 90% RH (water absorption determined by DVS): 1.2%
[3]
  solvate formation from the organic solvents assessed: No solvates were formed
